Data from the supplement of paper PMC11208160.

test: recombinant barcode read abundance after kanamycin selection (control-corrected) (log10(CPM+1)); higher = more efficient recombination; sequences stand for … in AGTGCAGAGAAAATCGGCCAGTTTTCTCTGCCTGCAGTCCGCATGCCGT…AGATTTATGCAGCGGACTGCCTTTCTCCCAAAGTGATAAACCGGACAGTATCATGGACCGGTTTTCCCGGTAATCCGTATTTGCAAGGTTGGTTTCACT; site = the 11-nt target
Summary of the method: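 Values are log10(CPM+1) from a pooled E. coli screen of targets paired with IS621 bridge RNA target-binding loops. Recombination efficiency here means counts per million of recombinant-junction barcodes, averaged and control-corrected. Plates were chloramphenicol/ampicillin LB agar for the control and chloramphenicol/ampicillin/kanamycin with 0.1 mM IPTG, two replicates each.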
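Note: IS621 recombinase and bridge RNA in Escherichia coli cells.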

Row | Sequence | recombinant barcode read abundance (log10)
1 | TAGTACCCTTGGGTTCTAACCTGTTGCAG (site TAGTACCCTGT) | 0.152
2 | TAGTACCCTTGGGTTCTAACCTGTTGCAG (site TAGTACCCTTT) | 0.0625
3 | TAGTACCCTTGGGTTCTAACCTGTTGCTG (site TAGTAACCTAA) | 0.434
4 | TAGTACCCTTGGGTTCTAACCTGTTGCTG (site TAGTACCCTCA) | 1.92
5 | TAGTAGTCTTGGGTTCTAACCTGTTGCGT (site TAGTAGTCTAA) | 0.509
6 | TAGTAGTCTTGGGTTCTAACCTGTTGCGT (site TAGTAGTCTAC) | 2.79
7 | TAGTAGTCTTGGGTTCTAACCTGTTGCGT (site TAGTAGTCTAG) | 0.729
8 | TAGTAGTCTTGGGTTCTAACCTGTTGCGT (site TAGTAGTCTAT) | 2.34
9 | TAGTCATCTTGGGTTCTAACCTGTTGCTC (site TAGACATCTGA) | 0.0065
10 | TAGTCATCTTGGGTTCTAACCTGTTGCTC (site TAGCCATCTGA) | 0.252
11 | TAGTCATCTTGGGTTCTAACCTGTTGCTC (site TAGGCATCTGA) | 0.243
12 | TAGTCATCTTGGGTTCTAACCTGTTGCTC (site TAGTCATCTGA) | 1.41
13 | TAGTCCACTTGGGTTCTAACCTGTTGCGC (site CTCAAAGCTCG) | 0.0907
14 | TAGTCCACTTGGGTTCTAACCTGTTGCGC (site TAGTCCACTGC) | 1.98
15 | TAGTCCGCTTGGGTTCTAACCTGTTGCGG (site GAGTTCGCTCC) | 0.00991
16 | TAGTCCGCTTGGGTTCTAACCTGTTGCGG (site TAGTCCGCTCC) | 0.0626
17 | TAGTCCTCTTGGGTTCTAACCTGTTGCTT (site TAGTCCTCTAA) | 1.22
18 | TAGTCCTCTTGGGTTCTAACCTGTTGCTT (site TAGTCCTCTCA) | 0.173
19 | TAGTCCTCTTGGGTTCTAACCTGTTGCTT (site TAGTCCTCTGA) | 0.13
20 | TAGTCCTCTTGGGTTCTAACCTGTTGCTT (site TAGTCCTCTTA) | 0.0542
21 | TAGTCGACTTGGGTTCTAACCTGTTGCTT (site TAGACGACTAA) | 0.652
22 | TAGTCGACTTGGGTTCTAACCTGTTGCTT (site TAGCCGACTAA) | 0.307

Row | Sequence | recombinant barcode read abundance (log10)
23 | TAGTCGACTTGGGTTCTAACCTGTTGCTT (site TAGGCGACTAA) | 0.0688
24 | TAGTCGACTTGGGTTCTAACCTGTTGCTT (site TAGTCGACTAA) | 0.103
25 | TAGTCGTCTTGGGTTCTAACCTGTTGCCT (site TAGTCGTCTAA) | 0.238
26 | TAGTCGTCTTGGGTTCTAACCTGTTGCCT (site TAGTCGTCTAG) | 1.3
27 | TAGTCGTCTTGGGTTCTAACCTGTTGCTA (site TAGTCGTCTTA) | 0.505
28 | TAGTCGTCTTGGGTTCTAACCTGTTGCTA (site TATTTGTCTTA) | 0.438
29 | TAGTCTCCTTGGGTTCTAACCTGTTGCGT (site TAGTATCCTAC) | 0.227
30 | TAGTCTCCTTGGGTTCTAACCTGTTGCGT (site TAGTCTCCTAC) | 0.314
31 | TAGTCTCCTTGGGTTCTAACCTGTTGCGT (site TAGTGTCCTAC) | 0.0837
32 | TAGTCTCCTTGGGTTCTAACCTGTTGCGT (site TAGTTTCCTAC) | 0.135
33 | TAGTGAGCTTGGGTTCTAACCTGTTGCCG (site GCCCATCCTTA) | 0.065
34 | TAGTGAGCTTGGGTTCTAACCTGTTGCCG (site TAGTGAGCTCG) | 1.44
35 | TAGTGAGCTTGGGTTCTAACCTGTTGCCT (site TAGTGAGCTAG) | 1.37
36 | TAGTGAGCTTGGGTTCTAACCTGTTGCCT (site TCGTGAGCTAG) | 0.134
37 | TAGTGCTCTTGGGTTCTAACCTGTTGCCC (site TAGTGCTCTAG) | 0.675
38 | TAGTGCTCTTGGGTTCTAACCTGTTGCCC (site TAGTGCTCTCG) | 0.576
39 | TAGTGCTCTTGGGTTCTAACCTGTTGCCC (site TAGTGCTCTGG) | 1.37
40 | TAGTGCTCTTGGGTTCTAACCTGTTGCCC (site TAGTGCTCTTG) | 0.116
41 | TAGTGTCCTTGGGTTCTAACCTGTTGCCT (site TAGTGTACTAG) | 0.126
42 | TAGTGTCCTTGGGTTCTAACCTGTTGCCT (site TAGTGTCCTAG) | 1.11
43 | TAGTGTCCTTGGGTTCTAACCTGTTGCCT (site TAGTGTGCTAG) | 0.521
44 | TAGTGTCCTTGGGTTCTAACCTGTTGCCT (site TAGTGTTCTAG) | 0.405

Row | Sequence | recombinant barcode read abundance (log10)
45 | TAGTGTCCTTGGGTTCTAACCTGTTGCGT (site TAGTATCCTAC) | 0.309
46 | TAGTGTCCTTGGGTTCTAACCTGTTGCGT (site TAGTCTCCTAC) | 0.104
47 | TAGTGTCCTTGGGTTCTAACCTGTTGCGT (site TAGTGTCCTAC) | 1.86
48 | TAGTGTCCTTGGGTTCTAACCTGTTGCGT (site TAGTTTCCTAC) | 0.0286
49 | TAGTGTGCTTGGGTTCTAACCTGTTGCCT (site TAGTGTACTAG) | 0.514
50 | TAGTGTGCTTGGGTTCTAACCTGTTGCCT (site TAGTGTCCTAG) | 0.137
51 | TAGTGTGCTTGGGTTCTAACCTGTTGCCT (site TAGTGTGCTAG) | 1.06
52 | TAGTGTGCTTGGGTTCTAACCTGTTGCCT (site TAGTGTTCTAG) | 0.0139
53 | TAGTGTTCTTGGGTTCTAACCTGTTGCCT (site TAGTGTACTAG) | 0.104
54 | TAGTGTTCTTGGGTTCTAACCTGTTGCCT (site TAGTGTCCTAG) | 0.181
55 | TAGTGTTCTTGGGTTCTAACCTGTTGCCT (site TAGTGTGCTAG) | 0.106
56 | TAGTGTTCTTGGGTTCTAACCTGTTGCCT (site TAGTGTTCTAG) | 0.57
57 | TAGTTAGCTTGGGTTCTAACCTGTTGCCT (site TAGTTAGCTAG) | 0.756
58 | TAGTTAGCTTGGGTTCTAACCTGTTGCCT (site TAGTTAGCTCG) | 0.217
59 | TAGTTAGCTTGGGTTCTAACCTGTTGCCT (site TAGTTAGCTGG) | 0.251
60 | TAGTTAGCTTGGGTTCTAACCTGTTGCCT (site TAGTTAGCTTG) | 0.11
61 | TAGTTCACTTGGGTTCTAACCTGTTGCCA (site TAGTTAACTTG) | 0.273
62 | TAGTTCACTTGGGTTCTAACCTGTTGCCA (site TAGTTCACTTG) | 0.0767
63 | TAGTTCACTTGGGTTCTAACCTGTTGCCA (site TAGTTGACTTG) | 0.0545
64 | TAGTTCACTTGGGTTCTAACCTGTTGCCA (site TAGTTTACTTG) | 0.0834
65 | TAGTTGTCTTGGGTTCTAACCTGTTGCTT (site CGACGCACTCC) | 0.301
66 | TAGTTGTCTTGGGTTCTAACCTGTTGCTT (site TAGTTGTCTAA) | 0.569

Row | Sequence | recombinant barcode read abundance (log10)
67 | TAGTTTACTTGGGTTCTAACCTGTTGCTA (site GGTCAGTCTCC) | 0.0822
68 | TAGTTTACTTGGGTTCTAACCTGTTGCTA (site TAGTTTACTTA) | 0.0536
69 | TAGTTTGCTTGGGTTCTAACCTGTTGCCG (site ACCGACCCTAT) | 0.00726
70 | TAGTTTGCTTGGGTTCTAACCTGTTGCCG (site TAGTTTGCTCG) | 0.743
71 | TATAAGTCTTGGGTTCTAACCTGTTGCCT (site CGTAAGTCTAG) | 0.0475
72 | TATAAGTCTTGGGTTCTAACCTGTTGCCT (site TATAAGTCTAG) | 0.0571
73 | TATAATACTTGGGTTCTAACCTGTTGCGG (site TAGAATACTCC) | 0.156
74 | TATAATACTTGGGTTCTAACCTGTTGCGG (site TATAATACTCC) | 0.659
75 | TATAGAGCTTGGGTTCTAACCTGTTGCGG (site TAAAGAGCTCC) | 0.358
76 | TATAGAGCTTGGGTTCTAACCTGTTGCGG (site TACAGAGCTCC) | 0.297
77 | TATAGAGCTTGGGTTCTAACCTGTTGCGG (site TAGAGAGCTCC) | 0.488
78 | TATAGAGCTTGGGTTCTAACCTGTTGCGG (site TATAGAGCTCC) | 2.21
79 | TATATAACTTGGGTTCTAACCTGTTGCCT (site TATAAAACTAG) | 0.137
80 | TATATAACTTGGGTTCTAACCTGTTGCCT (site TATACAACTAG) | 0.0941
81 | TATATAACTTGGGTTCTAACCTGTTGCCT (site TATAGAACTAG) | 0.119
82 | TATATAACTTGGGTTCTAACCTGTTGCCT (site TATATAACTAG) | 0.125
83 | TATCAGACTTGGGTTCTAACCTGTTGCCA (site TATCAGACTTG) | 0.639
84 | TATCAGACTTGGGTTCTAACCTGTTGCCA (site TATCTGACTAG) | 0.119
85 | TATCCGACTTGGGTTCTAACCTGTTGCCG (site TATCCGACTAG) | 0.224
86 | TATCCGACTTGGGTTCTAACCTGTTGCCG (site TATCCGACTCG) | 0.396
